Measured values published in ChEMBL document CHEMBL3272271, “Folate antagonists. 13. 2,4-Diamino-6-](alpha,alpha,alpha-trifluoro-m-tolyl)thio]quinazoline and related 2,4-diamino-6-[(phenyl- and naphthyl)thio]quinazolines, a unique class of antimetabolites with extraordinary antimalarial and antibacterial effects” (J Med Chem, 1978).
Converted amounts (≈) assume the structure as drawn. The source made the active and inactive calls. The rule behind the calls is not given here.

What was measured:
[1] = tested on: Plasmodium berghei; test: Antimalarial activity against Plasmodium berghei infected in mouse assessed as disease cure from parasite infection at 80 mg/kg, sc administered 72 hrs after infection; type: functional, organism-based; set-up: dose 80 mg/kg
[2] = tested on: Mycobacterium tuberculosis; test: Antibacterial activity against Mycobacterium tuberculosis H37Ra by gradient plate test; type: functional
[3] = tested on: Plasmodium berghei; test: Antimalarial activity against Plasmodium berghei infected in mouse assessed as disease cure from parasite infection at 320 mg/kg, sc administered 72 hrs after infection; type: functional, organism-based; set-up: dose 320 mg/kg
[4] = tested on: Staphylococcus aureus; test: Antibacterial activity against drug-resistant Staphylococcus aureus S18713 by gradient plate test; type: functional
[5] = tested on: Staphylococcus aureus; test: Antibacterial activity against Staphylococcus aureus UC-96 by gradient plate test; type: functional
[6] = tested on: Plasmodium berghei; test: Antimalarial activity against Plasmodium berghei infected in mouse assessed as disease cure from parasite infection at 40 mg/kg, sc administered 72 hrs after infection; type: functional, organism-based; set-up: dose 40 mg/kg
[7] = tested on: Plasmodium berghei; test: Antimalarial activity against Plasmodium berghei infected in mouse assessed as increase in mean survival days of host at 40 mg/kg, sc administered 72 hrs after infection relative to control; type: functional; details: route subcutaneous
[8] = tested on: Plasmodium berghei; test: Antimalarial activity against Plasmodium berghei infected in mouse assessed as increase in mean survival days of host at 320 mg/kg, sc administered 72 hrs after infection relative to control; type: functional; details: route subcutaneous
[9] = tested on: Plasmodium berghei; test: Antimalarial activity against Plasmodium berghei infected in mouse assessed as disease cure from parasite infection at 640 mg/kg, sc administered 72 hrs after infection; type: functional, organism-based; set-up: dose 640 mg/kg
[10] = tested on: Escherichia coli; test: Antibacterial activity against Escherichia coli Vogel by gradient plate test; type: functional
[11] = tested on: Plasmodium berghei; test: Antimalarial activity against Plasmodium berghei infected in mouse assessed as increase in mean survival days of host at 80 mg/kg, sc administered 72 hrs after infection relative to control; type: functional; details: route subcutaneous
[12] = tested on: Shigella sonnei; test: Antibacterial activity against Shigella sonnei C-10 by gradient plate test; type: functional
[13] = tested on: Enterococcus faecalis; test: Antibacterial activity against Streptococcus faecalis MGH-2 by gradient plate test; type: functional
[14] = tested on: Plasmodium berghei; test: Antimalarial activity against Plasmodium berghei infected in mouse assessed as increase in mean survival days of host at 20 mg/kg, sc administered 72 hrs after infection relative to control; type: functional; details: route subcutaneous
[15] = tested on: Pseudomonas aeruginosa; test: Antibacterial activity against Pseudomonas aeruginosa 28 by gradient plate test; type: functional
[16] = tested on: Plasmodium berghei; test: Antimalarial activity against Plasmodium berghei infected in mouse assessed as disease cure from parasite infection at 160 mg/kg, sc administered 72 hrs after infection; type: functional, organism-based; set-up: dose 160 mg/kg
[17] = tested on: Plasmodium berghei; test: Antimalarial activity against Plasmodium berghei infected in mouse assessed as increase in mean survival days of host at 160 mg/kg, sc administered 72 hrs after infection relative to control; type: functional; details: route subcutaneous
[18] = tested on: Plasmodium berghei; test: Antimalarial activity against Plasmodium berghei infected in mouse assessed as increase in mean survival days of host at 640 mg/kg, sc administered 72 hrs after infection relative to control; type: functional; details: route subcutaneous
[19] = tested on: Plasmodium gallinaceum; test: Antimalarial activity against sporozoite-induced Plasmodium gallinaceum infected in white leghorn chicken assessed as increase in mean survival days of host at 20 mg/kg, sc administered 72 hrs after infection relative to control; type: functional; details: route subcutaneous
[20] = tested on: Plasmodium berghei; test: Antimalarial activity against Plasmodium berghei infected in mouse assessed as increase in mean survival days of host at 1.25 mg/kg, sc administered 72 hrs after infection relative to control; type: functional; details: route subcutaneous
[21] = tested on: Plasmodium gallinaceum; test: Antimalarial activity against sporozoite-induced Plasmodium gallinaceum infected in white leghorn chicken assessed as disease cure from parasite infection at 20 mg/kg, sc administered 72 hrs after infection; type: functional, organism-based; set-up: dose 20 mg/kg
[22] = tested on: Plasmodium berghei; test: Ratio of quinine hydrochloride SD90 to compound SD90 for trophozoite-induced Plasmodium berghei infected in mouse assessed as daily dose required to suppression of 90% parasite infection administered with diet for 6 days; type: functional
[23] = tested on: Plasmodium berghei; test: Antimalarial activity against Plasmodium berghei infected in mouse assessed as increase in mean survival days of host at 2.5 mg/kg, sc administered 72 hrs after infection relative to control; type: functional; details: route subcutaneous
[24] = tested on: Plasmodium gallinaceum; test: Antimalarial activity against sporozoite-induced Plasmodium gallinaceum infected in white leghorn chicken assessed as disease cure from parasite infection at 160 mg/kg, sc administered 72 hrs after infection; type: functional, organism-based; set-up: dose 160 mg/kg
[25] = tested on: Gallus gallus; test: Toxicity in sporozoite-induced Plasmodium gallinaceum infected white leghorn chicken assessed as mortality at 320 mg/kg, sc administered 72 hrs after infection measured up to 6 days; type: organism-based; set-up: dose 320 mg/kg, route subcutaneous; details: in vivo
[26] = tested on: Plasmodium gallinaceum; test: Antimalarial activity against sporozoite-induced Plasmodium gallinaceum infected in white leghorn chicken assessed as disease cure from parasite infection at 320 mg/kg, sc administered 72 hrs after infection; type: functional, organism-based; set-up: dose 320 mg/kg
[27] = tested on: Plasmodium berghei; test: Antimalarial activity against Plasmodium berghei infected in mouse assessed as increase in mean survival days of host at 10 mg/kg, sc administered 72 hrs after infection relative to control; type: functional; details: route subcutaneous
[28] = tested on: Plasmodium berghei; test: Antimalarial activity against Plasmodium berghei infected in mouse assessed as disease cure from parasite infection at 20 mg/kg, sc administered 72 hrs after infection; type: functional, organism-based; set-up: dose 20 mg/kg
[29] = tested on: Plasmodium gallinaceum; test: Antimalarial activity against sporozoite-induced Plasmodium gallinaceum infected in white leghorn chicken assessed as disease cure from parasite infection at 40 mg/kg, sc administered 72 hrs after infection; type: functional, organism-based; set-up: dose 40 mg/kg
[30] = tested on: Plasmodium gallinaceum; test: Antimalarial activity against sporozoite-induced Plasmodium gallinaceum infected in white leghorn chicken assessed as disease cure from parasite infection at 80 mg/kg, sc administered 72 hrs after infection; type: functional, organism-based; set-up: dose 80 mg/kg
[31] = tested on: Plasmodium berghei; test: Antimalarial activity against trophozoite-induced Plasmodium berghei infected in mouse assessed as daily dose required to suppression of 90% parasite infection administered with diet for 6 days; type: functional
[32] = tested on: Plasmodium gallinaceum; test: Antimalarial activity against sporozoite-induced Plasmodium gallinaceum infected in white leghorn chicken assessed as increase in mean survival days of host at 10 mg/kg, sc administered 72 hrs after infection relative to control; type: functional; details: route subcutaneous
[33] = tested on: Plasmodium gallinaceum; test: Antimalarial activity against sporozoite-induced Plasmodium gallinaceum infected in white leghorn chicken assessed as disease cure from parasite infection at 10 mg/kg, sc administered 72 hrs after infection; type: functional, organism-based; set-up: dose 10 mg/kg
[34] = tested on: Plasmodium berghei; test: Antimalarial activity against Plasmodium berghei infected in mouse assessed as increase in mean survival days of host at 5 mg/kg, sc administered 72 hrs after infection relative to control; type: functional; details: route subcutaneous

Nc1nc(N)c2c(Cl)c(Sc3ccccc3Cl)ccc2n1
Activity [1]: Active
MIC [2]: > 25 µg/mL
Activity [3]: Active
MIC [4]: < 0.25 µg/mL
MIC [5]: < 0.25 µg/mL
Activity [6]: Active
MST [7]: 10.2 days
MST [8]: 24.4 days
Activity [9]: Active
MIC [10]: < 0.25 µg/mL
MST [11]: 11.7 days
MIC [12]: 1 µg/mL (≈ 2.97 µM)
MIC [13]: < 0.25 µg/mL
MST [14]: 4.7 days
MIC [15]: > 25 µg/mL
Activity [16]: Active
MST [17]: 14.9 days
MST [18]: 24.9 days

Nc1nc(N)c2c(Cl)c(Sc3ccccc3)ccc2n1
MIC [2]: 10 µg/mL (≈ 33 µM)
MIC [4]: < 0.25 µg/mL
MIC [5]: < 0.25 µg/mL
MST [7]: 4.7 days
Activity [9]: Active
MIC [10]: < 0.25 µg/mL
MIC [12]: < 0.25 µg/mL
MIC [13]: < 0.25 µg/mL
MST [14]: 3.9 days
MIC [15]: > 25 µg/mL
MST [17]: 13.9 days
MST [18]: 9.9 days

COc1ccc(Sc2ccc3nc(N)nc(N)c3c2)cc1
Activity [1]: Active
MST [19]: 3.2 days
MST [20]: 2.2 days
Activity [21]: Active
Ratio [22]: 62
MST [23]: 3.8 days
Activity [24]: Active
Activity [3]: Active
MIC [4]: < 0.25 µg/mL
MIC [5]: < 0.25 µg/mL
Activity [6]: Active
Activity [25]: Toxic
Activity [9]: Active
Activity [26]: Active
MST [27]: 9.6 days
MIC [10]: < 0.25 µg/mL
Activity [28]: Active
Activity [29]: Active
Activity [30]: Active
SD90 [31]: 1.2 mg/kg/day
MIC [12]: 1.5 µg/mL (≈ 5.03 µM)
MST [32]: 2.2 days
MIC [13]: < 0.25 µg/mL
MIC [15]: > 25 µg/mL
Activity [33]: Active
Activity [16]: Active
MST [34]: 4.8 days
